# Assays:
# [1] = system: Cherry tomato (breed; Regina); assay: Evaluation test for relief effects of high temperature injury on cherry tomato; type: in vivo; details: 30% water dispersible granule at plant foot at intervals of seven days
# Procedure: Cherry tomato (breed; Regina, 5 reprications) grown in a greenhouse was prepared.
# On August 24 at the first inflorescence anthesis, 0.15% of 4-chlorophenoxyacetic acid was sprayed, and a water dispersible granule of 30% ascorbyl palmitate in an amount described in Table 4 was further applied at the plant foot at intervals of seven days. All fruits were harvested on September 28, and the color of a fruit (classified into red and green), the weight of a fruit, and the number of fruits were investigated to calculate the weight per fruit and the percentage of red fruits (%).
# [2] = system: Eustoma grandiflorum (breed: King of Snow); assay: Evaluation test for relief effects of high temperature injury on Eustoma grandiflorum; type: in vivo; details: ascorbyl palmitate 600 ppm, sprayed 10 times; 2 weeks at 35° C. daylight/15° C. dark
# Procedure: Eustoma grandiflorum (breed: King of Snow) grown at a temperature of 22° C. and 16 hours under dark condition in a cell tray in the room was prepared. When an appropriately half were sprouted after seeding, a water dispersible granule of 30% ascorbyl palmitate was diluted with distilled water to a predetermined concentration, and the diluted solution was sprayed on the whole nursery plants in a sufficient amount. Subsequently, spraying by the same method was performed two times a week for the total of 10 times including the first application. Meanwhile, they were transferred to under conditions of 16 hours under a daylight condition at 35° C. and 8 hours under a dark condition at 15° C. at the expansion stage of a pair of true leaves 3 weeks after seeding, and allowed to grow for 2 weeks. Further, they were transferred to in a glass greenhouse and allowed to grow. Then naturalization was performed upon the expansion stage of two pairs of true leaves 8 week after seeding, and continuously allowed to grow in the greenhouse. Subsequently, the number of those bloomed out of the bolting plants was investigated.
compound,measurement,setting,value
CCCCCCCCCCCCCCCC(=O)OC[C@H](O)[C@H]1OC(=O)C(O)=C1O [ascorbyl palmitate],color of fruit: Number of green fruits,[1]; dosage 0.1 g/stock,13
same,color of fruit: Number of red fruits,[1]; dosage 0.1 g/stock,19
same,color of fruit: Percents of red fruits vs. no treatment region(%),[1]; dosage 0.1 g/stock,141%
same,color of fruit: Percents of red fruits(%),[1]; dosage 0.1 g/stock,59%
same,yield: Total number of fruits,[1]; dosage 0.1 g/stock,32
same,yield: Total weight of fruits,[1]; dosage 0.1 g/stock,304 g
same,yield: weight per fruit vs. no treatment region(%),[1]; dosage 0.1 g/stock,138%
same,yield: weight per fruit(g/fruit),[1]; dosage 0.1 g/stock,9.5 g/fruit
same,color of fruit: Number of green fruits,[1]; dosage 0.5 g/stock,4
same,color of fruit: Number of red fruits,[1]; dosage 0.5 g/stock,29
same,color of fruit: Percents of red fruits vs. no treatment region(%),[1]; dosage 0.5 g/stock,209%
same,color of fruit: Percents of red fruits(%),[1]; dosage 0.5 g/stock,88%
same,yield: Total number of fruits,[1]; dosage 0.5 g/stock,33
same,yield: Total weight of fruits,[1]; dosage 0.5 g/stock,342 g
same,yield: weight per fruit vs. no treatment region(%),[1]; dosage 0.5 g/stock,151%
same,yield: weight per fruit(g/fruit),[1]; dosage 0.5 g/stock,10.4 g/fruit
same,Number of bloomed plants,[2],12
same,Number of bolting plants,[2],16
same,Percents of bloomed plants(%),[2],75.0%
